In patent publication US20060148055A1, “Oxidised fragments of apolioprotein B and their uses” (priority 1997, published 2006):
No end group written: not given here. MDA = malondialdehyde

Tested on: U937 monocytes
Experiment: Inhibition of oxidised LDL uptake by peptides in monocytes in cell culture (DiI-labelled LDL fluorescence)
Format: cell-based
Settings: versus oxidised LDL alone, ANOVA followed by Tukey post test
Experimental: An experiment was performed to determine in cell culture if uptake of oxidised LDL by U937 monocytes could be inhibited by the peptides according to SEQ ID NOs:1-3, both in their native state and conjugated to MDA.
LDL (1 mg/ml) was labelled with 1,1′-dioctadecyl-3,3,3′,3′,-tetramethylindocarbocyanine perchlorate (DiI) (300 μg/mg LDL) by incubation overnight at 37° C. in the dark under nitrogen. Excess DiI was removed by desalting into PBS (0.01 M phosphate buffer, 0.137 M sodium chloride, pH 7.4) through a PD-10 column.
U937 monocytes were maintained in RPMI media supplemented with heat inactivated fetal calf serum (10%) (FCS) and penicillin/streptomycin (1%). Cells were ‘starved’ of lipids by culturing in RMPI supplemented with penicillin/streptomycin (1%) in the absence of serum, and plated at 1 million cells per well in 6 well plates, 4 hours before treatment with DiI labelled LDL. […] Non-starved cells were also plated at 1 million cells per well in 6 well plates, 4 hours before treatment with DiI labelled LDL. Starved and non-starved cells were treated with DiI labelled LDL (oxidized) (50 μg) in the presence or absence of excess unlabelled peptide (native or MDA-conjugated) (500 μg) as competitor. […] Fluorescence was read at Ex 520 nm, Em 590 nm using a Molecular Devices Gemini XS microplate fluorimeter. […]

Question: What does the source list for “RB1: peptide SEQ ID NO: 1 (ALQYKLEGTTR) MDA-conjugated (ALQYK(MDA)LEGTTR)”?
Answer: inhibition of uptake of oxidised LDL by monocytes (in words): inhibition is statistically significant; inhibition of uptake of oxidised LDL by monocytes (in words) (listed as peptide corresponding to SEQ ID NO:1 conjugated to MDA): inhibits uptake
